Results from the NIST ThermoML archive (doi:10.1016/j.jct.2013.01.009).
Values joined by “and” are separate entries in the source; they are usually repeats but may differ in a detail not shown here. Identical values can stand only once.

Tests used:
[1] = for vapor or sublimation pressure: Closed cell (Static) method
[2] = molar heat capacity at constant pressure; conditions: 101.33 kPa
[3] = Molar enthalpy of transition or fusion; conditions: Crystal; DSC
[4] = molar enthalpy of vaporization or sublimation; conditions: 298.15 K; Crystal; Static calorimetry

C=C1CC[C@H]2C[C@@H]1C2(C)C [(1S,5S)-6,6-dimethyl-2-methylenebicyclo[3.1.1]heptane]
[1], Liquid
Conditions | vapor or sublimation pressure
248.13 K | 0.00844 kPa and 0.00845 kPa
253.14 K | 0.01345 kPa and 0.01346 kPa
258.15 K | 0.021 kPa and 0.02101 kPa
263.15 K | 0.03214 kPa and 0.03213 kPa
268.15 K | 0.04828 kPa and 0.04829 kPa
273.65 K | 0.07411 kPa and 0.07418 kPa
278.15 K | 0.1037 kPa and 0.1038 kPa
283.15 K | 0.1485 kPa
288.15 K | 0.2093 kPa and 0.2094 kPa and 0.2095 kPa
293.15 K | 0.291 kPa and 0.2911 kPa
298.15 K | 0.4 kPa
303.15 K | 0.5419 kPa and 0.542 kPa
308.15 K | 0.7254 kPa and 0.7255 kPa and 0.7256 kPa

[2], Liquid, Large sample (1 g) DSC
Conditions | molar heat capacity at constant pressure [J/K/mol]
273.4 K | 230.06
278.5 K | 232.64
283.6 K | 235.22
288.7 K | 237.96
293.8 K | 240.62
298.9 K | 243.36
304 K | 245.94
309.1 K | 248.19
314.2 K | 251.01
319.4 K | 254.17
324.5 K | 256.75
329.6 K | 260.08
334.7 K | 262.9
339.8 K | 266.4
344.9 K | 269.47
350 K | 272.05
355.1 K | 275.21

CC1=C[C@H](O)[C@H]2C[C@@H]1C2(C)C [(-)-cis-verbenol]
[1]
Conditions | Normal melting temperature, Crystal [°C] | vapor or sublimation pressure, 273.15 K | vapor or sublimation pressure, 278.15 K | vapor or sublimation pressure, 283.15 K [kPa] | vapor or sublimation pressure, 288.15 K | vapor or sublimation pressure, 293.15 K | vapor or sublimation pressure, 298.15 K | vapor or sublimation pressure, 303.15 K [kPa] | vapor or sublimation pressure, 308.15 K | vapor or sublimation pressure, 313.15 K
Crystal | – | 0.00025 kPa and 0.00026 kPa | 0.00049 kPa and 0.0005 kPa | 0.00092 | 0.00169 kPa and 0.00168 kPa | 0.003 kPa and 0.00301 kPa | 0.00523 kPa and 0.00528 kPa and 0.00529 kPa | 0.00906 | 0.01518 kPa and 0.01523 kPa and 0.01524 kPa | 0.02515 kPa and 0.02516 kPa and 0.02517 kPa
DTA | 70.5 | – | – | – | – | – | – | – | – | –

Conditions | Molar enthalpy of transition or fusion [kcal/mol] | molar enthalpy [kcal/mol]
[3] | 4.18 | –
[4] | – | 19.1

[2]
Conditions | molar heat capacity at constant pressure [J/K/mol]
273.4 K, Crystal, Large sample (1 g) DSC | 217.51
278.5 K, Crystal, Large sample (1 g) DSC | 222.58
283.6 K, Crystal, Large sample (1 g) DSC | 228.98
288.7 K, Crystal, Large sample (1 g) DSC | 235.38
293.8 K, Crystal, Large sample (1 g) DSC | 242.28
298.15 K, Crystal, Drop calorimetry | 233.55
298.9 K, Crystal, Large sample (1 g) DSC | 250.18
304 K, Crystal, Large sample (1 g) DSC | 259
309.1 K, Crystal, Large sample (1 g) DSC | 269.14
344.9 K, Liquid, Large sample (1 g) DSC | 372.99
350 K, Liquid, Large sample (1 g) DSC | 377.14
355.1 K, Liquid, Large sample (1 g) DSC | 381.47
